Columns and labels:
[1] = tested on: collagen type II induced arthritis; assay: Collagen-induced arthritis, Example 2B: limb involvement; type: in vivo, mouse; conditions: 2 mg/kg body weight i.p.
Experimental: (§1) Male DBA/1 mice were immunized intradermally with 100 μg of bovine type II collagen emulsified in complete Freund's adjuvant (Difco Laboratories, East Molsey, UK). The mean day of onset of arthritis was approximately one month after immunization. After the onset of clinically evident arthritis (erythema and/or swelling), mice were injected intraperitoneally with therapeutic agents. Arthritis was monitored for clinical score and paw swelling (measured with calipers) for 10 days, after which the mice were sacrificed and joints were processed for histology. Sera were collected for analysis on day 10. Therapeutic agents were administered on day 1 (onset), day 4 and day 7. The therapeutic agents included TNF receptor/IgG fusion protein (p55-sf2), anti-TNF antibody, anti-CD4 antibody, and methylprednisolone acetate.
Using the Experimental Procedure described above, groups of mice were subjected to treatment with TNF receptor/IgG protein (2 μg) (18 mice), TNF receptor/IgG protein (20 μg) (18 mice), TNF receptor/IgG protein (100 μg) (12 mice), anti-TNF monoclonal antibody (mAb) (300 μg) (17 mice), methylprednisolone acetate (6 mice), an irrelevant human IgG1 monoclonal antibody (mAb) (6 mice), or saline (control). The TNF receptor/IgG fusion protein, herein referred to as p55-sf2, (Butler et al., Cytokine (in press): (1994), was provided by Centocor, Inc., Malvern Pa.; it is dimeric and consists of the human p55 TNF receptor (extracellular domains) fused to a partial J sequence followed by the whole of the constant region of the hunan IgG1 heavy chain, itself associated with the constant region of a kappa light chain. The […] antibody was TN3-19.12, a neutralizing hamster IgG1 anti-TNFα/β monoclonal antibody (Sheehan, K. C. et al., J. Immunology 142:3884-3893 (1989)), and was provided by R. Schreiber, Washington University Medical School (St. Louis, Mo., USA), in conjunction with Celltech (Slough, UK). […]

[2] = tested on: collagen type II induced arthritis; assay: Collagen-induced arthritis, Example 2B: histology of PIP joints; type: in vivo, mouse; conditions: 2 mg/kg body weight i.p.
Experimental: as §1
Using the Experimental Procedure described above, groups of mice were subjected to treatment with TNF receptor/IgG protein (2 μg) (18 mice), TNF receptor/IgG protein (20 μg) (18 mice), TNF receptor/IgG protein (100 μg) (12 mice), anti-TNF monoclonal antibody (mAb) (300 μg) (17 mice), methylprednisolone acetate (6 mice), an irrelevant human IgG1 monoclonal antibody (mAb) (6 mice), or saline (control). […]

For `CC(=O)OCC(=O)[C@@]1(O)CC[C@H]2[C@@H]3C[C@H](C)C4=CC(=O)C=C[C@]4(C)[C@H]3[C@@H](O)C[C@@]21C` [Methylprednisolone acetate, methylprednisolone acetate], the “Increase (%) in limbs affected” value [1] was 33%, the “Limbs Affected (mean ± SEM) Day 1” value ([1]; Day 1) was 1.00 ± 0.00 and the “Limbs Affected (mean ± SEM) Day 10” value ([1]; Day 10) was 1.50 ± 0.22. For the same compound, the “PIP Joints with Erosions (%)” value [2] was “(67%)” and the “PIP Joints with Erosions (number/total)” value [2] was 4/6.

— US20020068057A1, “TREATMENT OF AUTOIMMUNE AND INFLAMMATORY DISORDERS” (priority 1996, published 2002)
